Measured values: paper PMC7402526, “An in vitro quantitative systems pharmacology approach for deconvolving mechanisms of drug-induced, multilineage cytopenias” (PLoS Computational Biology, 2020)
Like-named read-outs stand apart in the source and are kept apart here.

What was measured:
Format in all cases: cell-based, human
[1] = test system: monocyte progenitors (monocyte prog); experiment: MLTA, MonoP: concentration-response and QSP model fit; details: for EC50: read-out: EC50MonoP
Procedure: (§1) A custom optimized cytokine cocktail was developed using commercially available cytokines (Peprotech, New Jersey) to facilitate simultaneous multi-lineage differentiation and self-renewal of freeze-thawed primary human bone marrow-derived CD34+ cells in SFEM II media (cells and media from StemCell Technologies, Vancouver). Cultures were carried out in ultra-low attachment 96-well plates (Corning, New York) with test article added on day 0 and cultured at 37°C, 85% relative humidity, and 5% CO2 for six days before interrogating drug impact via 17-parameter flow cytometry.
(§2) The flow cytometry panel used to define hematopoietic subsets was composed of CD34-PECy7, CD90-PECY5, CD38-AF488, CD371-PE, CD45Ra-BV421, CD14-BV605, CD42b-AF647, CD10-PEDazzle594, CD235a-PerCPCy5.5 (BioLegend, California), CD15-BUV395, CD41a-APCH7, CD71-BV786 (BD Biosciences, California), and DAPI for dead cell exclusion (ThermoFisher, California). In short, Day 6 cells were harvested, FcR-blocked (FcR binding inhibitor, ThermoFisher), surface-stained, then analyzed in a buffer containing TruCount Control Beads using a BD LSR Fortessa SORP fitted with a high-throughput sampler (BD Biosciences, California). Data was analyzed in Diva 6.0.2 and exported to CSV where after all cell data was transformed to cell per mL then normalized on a per-donor basis to untreated control wells to determine drug impact.
(§3) Donor material was collected and cultured as described above. The number of replicate donor samples per drug ranged from 2–7 and varied per drug (S1 Table). Drug treatment was added at time 0 and cells were maintained in culture for 6 days. Concentrations tested for each drug compound are contained in S1 Table. Concentrations were selected to span a range that is clinically useful. Following treatment, cell populations were measured using flow cytometry. We extracted cell counts from flow cytometry data, normalized to bead counts, and corrected for well volume.
(§4) Each well was normalized to the average of six vehicle control wells. For drugs that were tested across multiple runs of the assay, vehicle-normalized donor data were pooled, and we used the average of these pooled data for further modeling. Normalized data used as model inputs are included in S1 Table.
(§5) We implemented drug effects using an Emax model for the drug’s effect on each cell type. The 13 maximum effect parameters (EmaxT,C) are unitless and can vary between 0 and 2 and where a subscript, C, represents one of the previously described 13 cell types. We adapted a traditional Emax model using the equations below. We interpreted EmaxT values less than or equal to one as anti-proliferative, and EmaxT values greater than one as indicating a cell-killing mechanism in addition to anti-proliferation. The relationships for these effects are included in the model using the following equations. Eq 2 describes the drug anti-proliferative effect in the net proliferation rate for a given cell type. Eq 3 describes the cell-killing EmaxCK effect.
(§6) Towards the estimation of mechanistic parameters, we considered different formulations: (a) weighting the objective value to prioritize fitting dead cells and (b) using regularization methodology to encourage a parsimonious solution. We assessed the contributions of these formulations using mean-squared error and goodness of fit plots for drugs with known mechanisms. […] Further, we used L1 regularization to penalize parameters […] to help identify a parsimonious set of parameters to explain drug effects.

[2] = test system: lymphocyte progenitors (LymP); experiment: MLTA, LymP: concentration-response and QSP model fit
Procedure: as §1, §2, §3, §4, §5, §6

[3] = test system: granulocyte progenitor (Gran-lin prog); experiment: MLTA, GranP: concentration-response and QSP model fit; details: for EC50: read-out: EC50GranP
Procedure: as §1, §2, §3, §4, §5, §6

[4] = test system: B cells (B-lin); experiment: MLTA, B-lin: concentration-response and QSP model fit
Procedure: as §1, §2, §3, §4, §5, §6

[5] = test system: early erythroid cells (Eryth I); experiment: MLTA, ErythI: concentration-response and QSP model fit; details: for EC50: read-out: EC50ErythroidI
Procedure: as §1, §2, §3, §4, §5, §6

[6] = test system: neutrophils (neutrophil-lin); experiment: MLTA, Neut: concentration-response and QSP model fit
Procedure: as §1, §2, §3, §4, §5, §6

[7] = test system: monocytes (monocyte-lin); experiment: MLTA, Mono: concentration-response and QSP model fit
Procedure: as §1, §2, §3, §4, §5, §6

[8] = test system: late erythroid cells (Eryth II); experiment: MLTA, ErythII: concentration-response and QSP model fit; details: for EC50: read-out: EC50ErythroidII
Procedure: as §1, §2, §3, §4, §5, §6

[9] = test system: MK cells (MK-lin); experiment: MLTA, MK: concentration-response and QSP model fit
Procedure: as §1, §2, §3, §4, §5, §6

[10] = test system: granulocyte-macrophage progenitor (GMPs); experiment: MLTA, GMPs: concentration-response and QSP model fit
Procedure: as §1, §2, §3, §4, §5, §6

[11] = test system: granulocytes (Gran-lin); experiment: MLTA, Gran: concentration-response and QSP model fit
Procedure: as §1, §2, §3, §4, §5, §6

[12] = test system: hematopoietic stem cells (HSCs); experiment: Multi-lineage toxicity assay (MLTA), HSCs: concentration-response and QSP model fit; set-up: EmaxAP,HSC / EmaxT,HSC / Emax_drug_HSC: unitless, 0–2; ≤1 anti-proliferative, >1 adds cell killing
Procedure: as §1, §2, §3, §4, §5, §6

[13] = test system: multi-potent progenitors (MPPs); experiment: MLTA, MPPs: concentration-response and QSP model fit
Procedure: as §1, §2, §3, §4, §5, §6

[14] = QSP model parameter, sheet EC50_parameters, MonoP
[15] = parameter from QSP model fitting
[16] = QSP model parameter, sheet EC50_parameters, LymP
[17] = QSP model parameter, sheet EC50_parameters, GranP
[18] = QSP model parameter, sheet EC50_parameters, B
[19] = QSP model parameter, sheet EC50_parameters, Erythroid I
[20] = QSP model parameter, sheet EC50_parameters, Neut
[21] = QSP model parameter, sheet EC50_parameters, Mono
[22] = QSP model parameter, sheet EC50_parameters, Erythroid II
[23] = QSP model parameter, sheet EC50_parameters, MK
[24] = QSP model parameter, sheet EC50_parameters, GMPs
[25] = QSP model parameter, sheet EC50_parameters, Gran
[26] = QSP model parameter, sheet EC50_parameters, HSCs
[27] = QSP model parameter, sheet EC50_parameters, MPPs

## Nc1ccn([C@@H]2O[C@H](CO)[C@@H](O)[C@@H]2O)c(=O)n1 [Cytarabine]
[1]; Homo sapiens, Monocyte, 144 h, parameter from QSP model fitting, read-out: Emax_drug_MonoP
  Emax: 0.03%
[1]; Homo sapiens, Monocyte, QSP model parameter, sheet EC50_parameters, MonoP
  EC50: 28.7 nM
[2]; Homo sapiens, Lymphocyte, 144 h, parameter from QSP model fitting, read-out: Emax_drug_LymP
  Emax: 0.032%
[2]; Homo sapiens, Lymphocyte, QSP model parameter, sheet EC50_parameters, LymP
  EC50: 69.7 nM
[3]; Homo sapiens, 144 h, parameter from QSP model fitting, read-out: Emax_drug_GranP
  Emax: 104%
[3]; Homo sapiens, QSP model parameter, sheet EC50_parameters, GranP
  EC50: 6.96 nM
[4]; Homo sapiens, B-cell, 144 h, parameter from QSP model fitting, read-out: Emax_drug_B
  Emax: 83.9%
[4]; Homo sapiens, B-cell, QSP model parameter, sheet EC50_parameters, B
  EC50: 7.35 nM
[5]; Homo sapiens, 144 h, parameter from QSP model fitting, read-out: Emax_drug_ErythroidI
  Emax: 204%
[5]; Homo sapiens, QSP model parameter, sheet EC50_parameters, Erythroid I
  EC50: 4.31 nM
[6]; Homo sapiens, Neutrophil, 144 h, parameter from QSP model fitting, read-out: Emax_drug_Neut
  Emax: 18.3%
[6]; Homo sapiens, Neutrophil, QSP model parameter, sheet EC50_parameters, Neut
  EC50: 6.99 nM
[7]; Homo sapiens, Monocyte, 144 h, parameter from QSP model fitting, read-out: Emax_drug_Mono
  Emax: 20.1%
[7]; Homo sapiens, Monocyte, QSP model parameter, sheet EC50_parameters, Mono
  EC50: 63.2 nM
[8]; Homo sapiens, 144 h, parameter from QSP model fitting, read-out: Emax_drug_ErythroidII
  Emax: 2.92%
[8]; Homo sapiens, QSP model parameter, sheet EC50_parameters, Erythroid II
  EC50: 0.101 nM
[9]; Homo sapiens, 144 h, parameter from QSP model fitting, read-out: Emax_drug_MK
  Emax: 42.8%
[9]; Homo sapiens, QSP model parameter, sheet EC50_parameters, MK
  EC50: 6.86 nM
[10]; Homo sapiens, QSP model parameter, sheet EC50_parameters, GMPs
  EC50: 3.37 nM
[11]; Homo sapiens, 144 h, parameter from QSP model fitting, read-out: Emax_drug_Gran
  Emax: 0.0324%
[11]; Homo sapiens, QSP model parameter, sheet EC50_parameters, Gran
  EC50: 32.7 nM
[12]; Homo sapiens, Hematopoietic stem cell, 144 h, parameter from QSP model fitting, read-out: Emax_drug_HSC
  Emax: 61.3%
[12]; Homo sapiens, Hematopoietic stem cell, QSP model parameter, sheet EC50_parameters, HSCs
  EC50: 17.4 nM
[13]; Homo sapiens, 144 h, parameter from QSP model fitting, read-out: Emax_drug_MPP
  Emax: 0.0181%
[13]; Homo sapiens, QSP model parameter, sheet EC50_parameters, MPPs
  EC50: 122 nM

## Cc1c(-c2ccc(N3CCc4cccc(C(=O)Nc5nc6ccccc6s5)c4C3)nc2C(=O)O)cnn1CC12CC3CC(CC(C3)C1)C2 [A_1331852]
[1]; [14]
  EmaxT,MonoP: 1.47e-5
  EC50: 182 nM
[1]; [15]
  Emax_drug_MonoP: 1.47e-5
[2]; [16]
  EC50: 21.2 nM
  EmaxT,LymP: 1.6e-5
[2]; [15]
  Emax_drug_LymP: 1.6e-5
[3]; [17]
  EmaxT,GranP: 1.71e-6
  EC50: 949 nM
[3]; [15]
  Emax_drug_GranP: 1.71e-6
[4]; [18]
  EC50: 13.1 nM
  EmaxT,B: 0.1187
[4]; [15]
  Emax_drug_B: 0.1187
[5]; [19]
  EmaxT,ErythroidI: 2.5750
  EC50: 32.3 nM
[5]; [15]
  Emax_drug_ErythroidI: 2.5750
[6]; [20]
  EC50: 400 nM
  EmaxT,Neut: 1.51e-7
[6]; [15]
  Emax_drug_Neut: 1.51e-7
[7]; [21]
  EC50: 15.5 nM
  EmaxT,Mono: 0.0610
[7]; [15]
  Emax_drug_Mono: 0.0610
[8]; [22]
  EmaxT,ErythroidII: 1.51e-6
  EC50: 1160 nM
[8]; [15]
  Emax_drug_ErythroidII: 1.51e-6
[9]; [23]
  EC50: 24.1 nM
  EmaxT,MK: 0.1880
[9]; [15]
  Emax_drug_MK: 0.1880
[10]; [24]
  EC50: 911 nM
  EmaxT,GMP: 1.14e-6
[10]; [15]
  Emax_drug_GMP: 1.14e-6
[11]; [25]
  EC50: 0.687 nM
  EmaxT,Gran: 2.2504
[11]; [15]
  Emax_drug_Gran: 2.2504
[12]; [26]
  EC50: 1960 nM
  EmaxT,HSC: 0.0828
[12]; [15]
  Emax_drug_HSC: 0.0828
[13]; [27]
  EC50: 1000 nM
  EmaxT,MPP: 2.15e-6
[13]; [15]
  Emax_drug_MPP: 2.15e-6
